In patent US6861561B2, “Substituted aromatic policyclic tertiary-heteroalkylamines useful for inhibiting cholesteryl ester transfer protein activity” (G. D. Searle & Co., priority 1999, dated 2005):

Target: T1, Human recombinant CETP (Homo sapiens, UniProt P11597)
T1 construct: made in house; host or cells: CHO cells (serum-free conditioned medium)
T1 sequence (P11597 18-493): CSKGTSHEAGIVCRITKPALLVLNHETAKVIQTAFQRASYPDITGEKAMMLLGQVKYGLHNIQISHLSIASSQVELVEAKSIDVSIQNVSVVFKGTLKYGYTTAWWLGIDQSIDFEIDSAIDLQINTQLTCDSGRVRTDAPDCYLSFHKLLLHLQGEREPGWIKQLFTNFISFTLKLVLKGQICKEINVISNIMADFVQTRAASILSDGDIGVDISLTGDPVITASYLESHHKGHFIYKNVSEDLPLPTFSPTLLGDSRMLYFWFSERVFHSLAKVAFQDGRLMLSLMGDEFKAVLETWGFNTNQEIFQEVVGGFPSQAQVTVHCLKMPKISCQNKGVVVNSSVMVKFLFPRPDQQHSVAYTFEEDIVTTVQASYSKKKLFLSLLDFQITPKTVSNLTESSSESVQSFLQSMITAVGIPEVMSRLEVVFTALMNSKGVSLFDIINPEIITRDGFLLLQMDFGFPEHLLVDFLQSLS
Assay: Assay of CETP Inhibition Using Purified Components (Reconstituted Buffer Assay)
Type: biochemical
Settings: transfer of [3H]CE from HDL to LDL; 2 hours at 37° C.
Procedure: Assay of CETP Inhibition Using Purified Components (Reconstituted Buffer Assay)
The ability of compounds to inhibit CETP activity was assessed using an in vitro assay that measured the rate of transfer of radiolabeled cholesteryl ester ([^3H]CE) from HDL donor particles to LDL acceptor particles. Details of the assay are provided by Glenn, K. C. et al. (Glenn and Melton, “Quantification of Cholesteryl Ester Transfer Protein (CETP): A) CETP Activity and B) Immunochemical Assay of CETP Protein,” Meth. Enzymol., 263, 339-351 (1996)). Human recombinant CETP can be obtained from the serum-free conditioned medium of CHO cells transfected with a cDNA for CETP and purified as described by Wang, S. et al. (J. Biol. Chem. 267, 17487-17490 (1992)). To measure CETP activity, [^3H]CE-labeled-HDL, LDL, CETP and assay buffer (50 mM tris(hydroxymethyl)aminomethane, pH 7.4; 150 mM sodium chloride; 2 mM ethylenediamine-tetraacetic acid (EDTA); 1% bovine serum albumin) were incubated in a final volume of 200 μL, for 2 hours at 37° C. in 96 well plates. Inhibitors were included in the assay by diluting from a 10 mM DMSO stock solution into 16% (v/v) aqueous DMSO so that the final concentration of inhibitor was 800 μM. The inhibitors were then diluted 1:1 with CETP in assay buffer, and then 25 μL of that solution was mixed with 175 μL of lipoprotein pool for assay. Following incubation, LDL was differentially precipitated by the addition of 50 μL of 1% (w/v) dextran sulfate/0.5 M magnesium chloride, mixed by vortex, and incubated at room temperature for 10 minutes. A potion of the solution (200 μL) was transferred to a filter plate (Millipore). After filtration, the radioactivity present in the precipitated LDL was measured by liquid scintillation counting. […] The rate of [^3H]CE transfer using this assay was linear with respect to time and CETP concentration, up to 25-30% of [^3H]CE transferred.
This value was defined as the IC50.

| Compound | IC50 [µM] |
| --- | --- |
| C=CC(O)CN(Cc1cccc(OC(F)(F)F)c1)c1cccc(Oc2ccccc2)c1 (stereo not shown) [Example 4] | > 50 |
| OC(Cc1ccccc1)CN(Cc1cccc(OC(F)(F)F)c1)c1cccc(Oc2ccccc2)c1 (stereo not shown) [Example 5] | > 50 |
| OC(COc1ccc(Cl)cc1)CN(Cc1cccc(OC(F)(F)F)c1)c1cccc(Oc2ccccc2)c1 (stereo not shown) [Example 6] | > 100 |
| OC(COCc1ccco1)CN(Cc1cccc(OC(F)(F)F)c1)c1cccc(Oc2ccccc2)c1 (stereo not shown) [Example 7] | > 100 |
| FC(F)(F)Oc1cccc(CN(CCc2ccc(C(F)(F)F)cc2)c2cccc(Oc3ccccc3)c2)c1 [Example 27, N-[(3-phenoxy)phenyl]-N-[[(3-trifluoromethoxy)phenyl]methyl]-2-[(4-trifluoromethyl)phenyl]ethanamine] | > 100 |
| FC(CN(Cc1cccc(OC(F)(F)F)c1)c1cccc(Oc2ccccc2)c1)c1ccc(C(F)(F)F)cc1 (stereo not shown) [Example 28, N-[(3-phenoxy)phenyl]-N-[[(3-trifluoromethoxy)phenyl]methyl]-2-[(4-trifluoromethyl)phenyl]-2-fluoro-ethanamine] | > 100 |
| COCC(O)CN(Cc1cccc(OC(F)(F)F)c1)Cc1cccc(OC(F)(F)F)c1 (stereo not shown) [compound 13] | 80 |
| CC(O)CN(Cc1cccc(OC(F)(F)F)c1)Cc1cccc(OC(F)(F)F)c1 (stereo not shown) [compound 14] | 90 |
| CCOC(=O)C(O)CN(Cc1cccc(OC(F)(F)F)c1)Cc1cccc(OC(F)(F)F)c1 (stereo not shown) [compound 15] | > 100 |
| OCC(O)CN(Cc1cccc(OC(F)(F)F)c1)Cc1cccc(OC(F)(F)F)c1 (stereo not shown) [compound 16] | > 100 |
| OC(COc1ccccc1)CN(Cc1cccc(OC(F)(F)F)c1)Cc1cccc(OC(F)(F)F)c1 (stereo not shown) [compound 17] | > 100 |
| OC(COc1ccc(Cl)cc1)CN(Cc1cccc(OC(F)(F)F)c1)Cc1cccc(OC(F)(F)F)c1 (stereo not shown) [compound 18] | > 100 |
| OC(CN1CCOCC1)CN(Cc1cccc(OC(F)(F)F)c1)Cc1cccc(OC(F)(F)F)c1 (stereo not shown) [compound 19] | > 100 |
| O=C1c2ccccc2C(=O)N1CC(O)CN(Cc1cccc(OC(F)(F)F)c1)Cc1cccc(OC(F)(F)F)c1 (stereo not shown) [compound 20] | > 100 |
| COc1ccc(OCC(O)CN(Cc2cccc(OC(F)(F)F)c2)Cc2cccc(OC(F)(F)F)c2)cc1 (stereo not shown) [compound 21] | > 100 |

The remaining compounds from weak to strong by IC50, led by results:

| IC50 [µM] | Compound |
| --- | --- |
| 57 | OC(CN(Cc1cccc(OC(F)(F)C(F)F)c1)c1cccc(Oc2ccccc2)c1)c1ccccc1 (stereo not shown) [Example 10] |
| 44 | OC(CN(Cc1cccc(OC(F)(F)F)c1)c1cccc(Oc2ccccc2)c1)c1ccccc1 (stereo not shown) [Example 3] |
| 30 | CCCC(O)CN(Cc1cccc(OC(F)(F)F)c1)Cc1cccc(OC(F)(F)F)c1 (stereo not shown) [compound 11] |
| 24 | COC(=O)C(C)(O)CN(Cc1cccc(OC(F)(F)F)c1)c1cccc(Oc2ccccc2)c1 (stereo not shown) [Example 9] |
| 18 | OC(CN(Cc1cccc(OC(F)(F)F)c1)c1cccc(Oc2ccccc2)c1)c1ccc(C(F)(F)F)cc1 (stereo not shown) [EX-1A, 2-[(3-phenoxy)phenyl[[(3-trifluoromethoxy)phenyl]methyl]amino]-1-[(4-trifluoromethyl)phenyl]ethanol] |
| 15 | OC1CCCCC1N(Cc1cccc(OC(F)(F)F)c1)c1cccc(Oc2ccccc2)c1 (stereo not shown) [Example 26] |
| 14 | OC(Cc1ccccc1)CN(Cc1cccc(OC(F)(F)F)c1)Cc1cccc(OC(F)(F)F)c1 (stereo not shown) [compound 12] |
| 7 | OCC(c1cccc(C(F)(F)F)c1)N(Cc1cccc(OC(F)(F)F)c1)c1cccc(Oc2ccccc2)c1 (stereo not shown) [Example 8] |
| 6 | OCC(c1ccc(C(F)(F)F)cc1)N(Cc1cccc(OC(F)(F)F)c1)c1cccc(Oc2ccccc2)c1 (stereo not shown) [1B, 2-[(3-phenoxy)phenyl[[(3-trifluoromethoxy)phenyl]methyl]amino]-2-[(4-trifluoromethyl)phenyl]ethanol] |
| 3.6 | CCCC(O)CN(Cc1cccc(OC(F)(F)F)c1)c1cccc(Oc2ccccc2)c1 (stereo not shown) [Example 2] |
